# In PMC8878317, “Chemogenomics identifies acetyl-coenzyme A synthetase as a target for malaria treatment and prevention” (Cell Chemical Biology, 2022):
# Like-named read-outs stand apart in the source and are kept apart here.
# Tests used:
# Format in all cases: cell-based
# [1] = system: P. falciparum NF54-PfACS11-cKD; assay: cKD compound susceptibility assay, PfACS11 cKD line; conditions: 50 nM aTc vs no aTc
# [2] = system: P. falciparum NF54-PfAcAS-cKD; assay: cKD compound susceptibility assay (luminescence, 72 hr), PfAcAS cKD line; conditions: Plasmodium falciparum
# Excerpt: We used CRISPR-Cas9 to modify the native PfAcAS locus and install the linear pSN054 donor vector ([Nasamu et al., 2020]) that incorporates a C-terminal V5 and 2xHA-tags, a 10x aptamer array, and the TetR-DOZI expression cassette containing the blasticidin S deaminase gene, the reporter gene Renilla luciferase (RLuc), and the fusion proteins TetR-DOZI ([Ganesan et al., 2016]). The right homology region (RHR) was PCR amplified and inserted into pSN054 using the I-SceI restriction site. Fragments corresponding to the left homology region (LHR) fused to the re-codonized 3′-end of the gene (bp 2710–2991) as well as the target-specifying guide RNA sequence were synthesized using the BioXP 3200 System (SGI-DNA) and cloned into pSN054 using restriction sites FseI/AsisI and AflII, respectively. Donor vector generation was carried out via Gibson assembly, and the final construct was confirmed by restriction digests and Sanger sequencing. Primers used in this study are listed in the key resources table.
# Transfection into Cas9-and T7 RNA polymerase-expressing NF54 parasites was carried out by preloading erythrocytes with the AcAS_pSN054 plasmid as described previously ([Deitsch et al., 2001]). Briefly, 50–100 μg of purified plasmid DNA were mixed with human red blood cells in 0.2 cm cuvettes and subjected to 8 square wave electroporation pulses of 365 V for 1 ms each, separated by 0.1 s. The DNA preloaded red blood cells were inoculated with schizont-stage parasites (e.g. NF54attB, NF54:pCRISPR) to achieve starting parasitemias ≤1% in RPMI 1640 Complete media. Cultures were maintained in 500 nM anhydrotetracycline (aTc; Sigma-Aldrich 37,919) and 2.5 μg/mL Blasticidin S (RPI Corp B12150–0.1). Emergence of transfectants was monitored via Giemsa smears and RLuc measurements. Clonal parasites were obtained by limiting dilution ([Rosario, 1981]).
# Synchronous ring-stage, aptamer-regulated PfAcAS and control parasite lines were resuspended in varying aTc concentrations (high = 50 nM, low = 1 nM, and no aTc) and distributed into the drug plate. DMSO carrier and chloroquine (200 nM) wells served as positive and negative controls.
# [3] = system: P. falciparum MMV019721-resistant lines (3D7-A10 or Dd2-B2 derived); assay: Dose-response assay of MMV019721-selected resistant lines (bulk cultures and clones); conditions: Plasmodium falciparum
# Method: For in vitro–selected lines, drug susceptibility was measured by SYBR Green I–based assay ([Johnson et al., 2007]; [Smilkstein et al., 2004]). Ring-stage parasites were cultured for 72 hr at 1% hematocrit and 1% starting parasitemia in 384-well black clear-bottom plates containing test compounds plated in triplicate in 12-point serial dilutions. Lysis buffer (0.16% w/v saponin, 1.6% Triton X-100, 5 mM EDTA, and 20 mM Tris-HCl, pH 7.4) with SYBR Green I fluorescent dye (Invitrogen) was added, and fluorescence readings were taken (excitation at 494 nm, emission at 530 nm). Alternatively, Dd2-B2 ring-stage cultures at 0.3% parasitemia and 1% hematocrit were exposed for 72 hr to a range of ten drug concentrations that were 2-fold serially diluted in duplicates along with drug-free controls. Parasite survival was assessed by flow cytometry on an Accuri C6 (BD Biosciences) using SYBR Green and MitoTracker Deep Red FM (Life Technologies) as nucleic acid stain and vital dyes respectively. EC50 values were calculated using a nonlinear regression curve fit in Prism Software version 8 (GraphPad).
# Bulk cultures were tested for reduced drug susceptibility and individual clones were isolated by limiting dilution.
# [4] = NF54, read-out: PfAcAS cKD EC50 ± SD (nM) (1nM aTc)
# [5] = NF54, read-out: PfAcAS cKD EC50 ± SD (nM) (50nM aTc)
smiles,measurement,setting,value
O=C(NNC(=O)c1csnn1)c1ccc(Cl)cc1 [MMV084978],effect of conditional knockdown of PfACS11 on parasite sensitivity,[1],did not increase parasite sensitivity
same,EC50,[2]; [4],45 ± 4.4 nM
same,EC50,[2]; [5],240 ± 64 nM
CCN(CC)S(=O)(=O)c1ccc(Cl)c(C(=O)Nc2ccc3nc(C)sc3c2)c1 [MMV019721],EC50,"[3]; MDR1, read-out: MMV019721 mean EC50 (nM) ± SD (n), selection 9, Dd2-B2, clone B3, AcAS CNV, MDR1 CNV, AP2-I CNV",1400 ± 200 nM
same,EC50,"[3]; read-out: MMV019721 mean EC50 (nM) ± SD (n), selection 1, Dd2-B2, clone E4, AcAS:A597V",7700 ± 570 nM
same,EC50,"[3]; read-out: MMV019721 mean EC50 (nM) ± SD (n), selection 2, Dd2-B2, clone E10, AcAS:A597V",9200 ± 810 nM
same,EC50,"[3]; read-out: MMV019721 mean EC50 (nM) ± SD (n), selection 2, Dd2-B2, clone F12, AcAS:A597V, n=1",8400 nM
same,EC50,"[3]; read-out: MMV019721 mean EC50 (nM) ± SD (n), selection 3, Dd2-B2, clone F2, AcAS:A597V",9000 ± 490 nM
same,EC50,"[3]; read-out: MMV019721 mean EC50 (nM) ± SD (n), selection 3, Dd2-B2, clone F10, AcAS:A597V",11000 ± 1300 nM
same,EC50,"[3]; read-out: MMV019721 mean EC50 (nM) ± SD (n), selection 4, 3D7-A10, Bulk, sequencing not determined",460 ± 100 nM
same,EC50,"[3]; read-out: MMV019721 mean EC50 (nM) ± SD (n), selection 5, 3D7-A10, clone 2B1C, AcAS:T648M",7700 ± 1200 nM
same,EC50,"[3]; read-out: MMV019721 mean EC50 (nM) ± SD (n), selection 5, 3D7-A10, clone 2B1F, AcAS:T648M",7500 ± 1400 nM
same,EC50,"[3]; read-out: MMV019721 mean EC50 (nM) ± SD (n), selection 5, 3D7-A10, clone 2B12B, AcAS:T648M",7400 ± 500 nM
same,EC50,"[3]; read-out: MMV019721 mean EC50 (nM) ± SD (n), selection 6, 3D7-A10, clone 3B1D, AcAS:T648M",7100 ± 1700 nM
same,EC50,"[3]; read-out: MMV019721 mean EC50 (nM) ± SD (n), selection 6, 3D7-A10, clone 3B6H, AcAS:T648M",6800 ± 420 nM
same,EC50,"[3]; read-out: MMV019721 mean EC50 (nM) ± SD (n), selection 6, 3D7-A10, clone 3B11G, AcAS:T648M",6800 ± 1100 nM
same,EC50,"[3]; read-out: MMV019721 mean EC50 (nM) ± SD (n), selection 7, 3D7-A10, clone 4B3D, AcAS:T648M",7700 ± 1700 nM
same,EC50,"[3]; read-out: MMV019721 mean EC50 (nM) ± SD (n), selection 7, 3D7-A10, clone 4B4H, AcAS:T648M",8400 ± 680 nM
same,EC50,"[3]; read-out: MMV019721 mean EC50 (nM) ± SD (n), selection 7, 3D7-A10, clone 4B8B, AcAS:T648M",7500 ± 1100 nM
same,EC50,"[3]; read-out: MMV019721 mean EC50 (nM) ± SD (n), selection 8, Dd2-B2, clone A3, AcAS CNV, AP2-I CNV",1400 ± 90 nM
same,EC50,"[3]; read-out: MMV019721 mean EC50 (nM) ± SD (n), selection 10, Dd2-B2, clone C3, ACS11 INDEL(Leu24-Asp30), AP2-I CNV",2000 ± 170 nM
same,EC50,"[3]; read-out: MMV019721 mean EC50 (nM) ± SD (n), selection 11, 3D7-A10, clone 1E9, sequencing not determined",3000 ± 250 nM
same,EC50,"[3]; read-out: MMV019721 mean EC50 (nM) ± SD (n), selection 11, 3D7-A10, clone 1E12, AcAS: Ala652Thr",2700 ± 270 nM
same,EC50,"[3]; read-out: MMV019721 mean EC50 (nM) ± SD (n), selection 11, 3D7-A10, clone 1G4, sequencing not determined",2000 ± 600 nM
same,EC50,"[3]; read-out: MMV019721 mean EC50 (nM) ± SD (n), selection 11, 3D7-A10, clone 1G8, ACS11:Thr767Ile",1700 ± 340 nM
same,EC50,"[3]; read-out: MMV019721 mean EC50 (nM) ± SD (n), selection 12, 3D7-A10, clone 2B4, AcAS:T648M",8500 ± 840 nM
same,EC50,"[3]; read-out: MMV019721 mean EC50 (nM) ± SD (n), selection 12, 3D7-A10, clone 2C6, sequencing not determined",2200 ± 770 nM
same,EC50,"[3]; read-out: MMV019721 mean EC50 (nM) ± SD (n), selection 12, 3D7-A10, clone 2D11, sequencing not determined",7100 ± 1300 nM
same,EC50,"[3]; read-out: MMV019721 mean EC50 (nM) ± SD (n), selection 12, 3D7-A10, clone 2G6, AcAS: Ala652Thr",4000 ± 630 nM
same,EC50,"[3]; read-out: MMV019721 mean EC50 (nM) ± SD (n), selection 13, 3D7-A10, clone 3B9, sequencing not determined",2300 ± 680 nM
same,EC50,"[3]; read-out: MMV019721 mean EC50 (nM) ± SD (n), selection 13, 3D7-A10, clone 3C7, sequencing not determined",2300 ± 530 nM
same,EC50,"[3]; read-out: MMV019721 mean EC50 (nM) ± SD (n), selection 13, 3D7-A10, clone 3D10, ACS11: Asp269Gly",1500 ± 82 nM
same,EC50,"[3]; read-out: MMV019721 mean EC50 (nM) ± SD (n), selection 13, 3D7-A10, clone 3G8, ACS11: Ser74Leu",2200 ± 570 nM
same,EC50,"[3]; read-out: PfAcAS:A597V-resistant clone EC50, range over A597V clones",7700 to 11000 nM
same,EC50,"[3]; read-out: PfAcAS:T648M EC50, range over T648M clones",6800 to 8400 nM
same,effect of conditional knockdown of PfACS11 on parasite sensitivity,[1],did not increase parasite sensitivity
same,EC50,[2]; [4],7 ± 1.2 nM
same,EC50,[2]; [5],43 ± 8.5 nM
